# Article PMC6934184, “Selective DNA-PKcs inhibition extends the therapeutic index of localized radiotherapy and chemotherapy” (The Journal of Clinical Investigation, 2019)
# Target: T1, CDK5/p25 (Homo sapiens, UniProt Q00535)
# T1 construct: purchased Thermo Fisher Scientific (Life Technologies) SelectScreen
# Assay: SelectScreen Z'LYTE
# Type: biochemical
# Procedure, shortened: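 Percent values come from Thermo SelectScreen profiling of NU5455, combining activity and binding assays. CSF1R was run in Z'LYTE format at Km app ATP, and CAMK1 in Adapta format with ATP listed at 10.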
# T1 sequence (Q00535 whole entry): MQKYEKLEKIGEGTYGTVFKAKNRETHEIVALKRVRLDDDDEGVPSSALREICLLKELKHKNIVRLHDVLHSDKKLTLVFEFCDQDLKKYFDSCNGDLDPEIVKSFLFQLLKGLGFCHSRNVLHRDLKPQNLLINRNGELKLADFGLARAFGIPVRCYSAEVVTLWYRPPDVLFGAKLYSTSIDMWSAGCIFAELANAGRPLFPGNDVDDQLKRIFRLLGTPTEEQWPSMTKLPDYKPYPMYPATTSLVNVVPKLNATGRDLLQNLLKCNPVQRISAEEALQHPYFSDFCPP
# T1 sequence (Q15078 99-307 partner limits assumed): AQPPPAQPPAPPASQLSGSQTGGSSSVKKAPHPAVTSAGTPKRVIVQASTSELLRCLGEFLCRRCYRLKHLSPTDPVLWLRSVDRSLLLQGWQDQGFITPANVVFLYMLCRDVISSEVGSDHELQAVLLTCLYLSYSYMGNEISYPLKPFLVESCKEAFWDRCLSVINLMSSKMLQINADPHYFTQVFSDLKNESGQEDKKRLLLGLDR
smiles,measurement,value
CN(C(=O)CN1CCOCC1)c1ccc2sc3c(-c4cccc5c(=O)cc(N6CC7CCC(C6)O7)oc45)cccc3c2c1 [NU5455],inhibition at 1 µM,-1.1%
